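Step 1: Grow cells in 96-well plates. Step 2: Expose to compound for 48 hours at 5 concentrations. Step 3: Interpolate endpoints linearly; if unreached, use highest concentration. TGI: total growth inhibition.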
What was measured:
Test in all cases: growth of human tumour cells (NCI), 48 h
[1] = tested on: ACHN renal
[2] = tested on: DLD-1 colon
[3] = tested on: DMS 114 small cell lung
[4] = tested on: EKVX NSCLC
[5] = tested on: HCC-2998 colon
[6] = tested on: HCT-116 colon
[7] = tested on: HCT-15 colon
[8] = tested on: HOP-62 NSCLC
[9] = tested on: HT29 colon
[10] = tested on: KM12 colon
[11] = tested on: KM20L2 colon
[12] = tested on: LOX IMVI melanoma
[13] = tested on: LXFL 529 NSCLC
[14] = tested on: M14 melanoma
[15] = tested on: M19-MEL melanoma
[16] = tested on: MALME-3M melanoma
[17] = tested on: NCI-H226 lung
[18] = tested on: NCI-H23 lung
[19] = tested on: NCI-H460 lung
[20] = tested on: OVCAR-3 ovarian
[21] = tested on: OVCAR-4 ovarian
[22] = tested on: OVCAR-5 ovarian
[23] = tested on: RXF 393 renal
[24] = tested on: SF-268 CNS
[25] = tested on: SF-539 CNS
[26] = tested on: SK-MEL-2 melanoma
[27] = tested on: SK-MEL-28 melanoma
[28] = tested on: SK-OV-3 ovarian
[29] = tested on: SN12C renal
[30] = tested on: SNB-19 CNS
[31] = tested on: SNB-75 CNS
[32] = tested on: SNB-78 CNS
[33] = tested on: TK-10 renal
[34] = tested on: U251 CNS
[35] = tested on: UACC-257 melanoma
[36] = tested on: UACC-62 melanoma
[37] = tested on: UO-31 renal
[38] = tested on: XF 498 CNS
[39] = tested on: 786-0 renal
[40] = tested on: A498 renal
[41] = tested on: CCRF-CEM leukemia
[42] = tested on: K-562 leukemia
[43] = tested on: MOLT-4 leukemia
[44] = tested on: NCI-H522 lung
[45] = tested on: OVCAR-8 ovarian
[46] = tested on: RPMI-8226 leukemia
[47] = tested on: RXF-631 renal
[48] = tested on: SF-295 CNS
[49] = tested on: SR leukemia
[50] = tested on: A549 NSCLC
[51] = tested on: COLO 205 colon
[52] = tested on: DMS 273 small cell lung
[53] = tested on: HL-60(TB) leukemia
[54] = tested on: HOP-92 NSCLC
[55] = tested on: IGROV1 ovarian
[56] = tested on: SK-MEL-5 melanoma
[57] = tested on: SW-620 colon

With `CC(C)C(C)C(C)(C)P(C)(C)=O` (stereo not given) the TGI [1] was > 100 µM, the TGI [2] was > 100 µM and the TGI [3] was > 100 µM. For the same compound, the TGI [4] was > 100 µM, the TGI [5] was > 100 µM and the TGI [6] was > 100 µM. For the same compound, the TGI [7] was > 100 µM, the TGI [8] was > 100 µM and the TGI [9] was > 100 µM. For the same compound, the TGI [10] was > 100 µM, the TGI [11] was > 100 µM and the TGI [12] was > 100 µM. For the same compound, the TGI [13] was > 100 µM, the TGI [14] was > 100 µM and the TGI [15] was > 100 µM. For the same compound, the TGI [16] was > 100 µM, the TGI [17] was > 100 µM and the TGI [18] was > 100 µM. The TGI [19] was > 100 µM, the TGI [20] was > 100 µM and the TGI [21] was > 100 µM. The TGI [22] was > 100 µM, the TGI [23] was > 100 µM and the TGI [24] was > 100 µM. For the same compound, the TGI [25] was > 100 µM, the TGI [26] was > 100 µM and the TGI [27] was > 100 µM. For the same compound, the TGI [28] was > 100 µM, the TGI [29] was > 100 µM and the TGI [30] was > 100 µM. The TGI [31] was > 100 µM, the TGI [32] was > 100 µM and the TGI [33] was > 100 µM. The TGI [34] was > 100 µM, the TGI [35] was > 100 µM and the TGI [36] was > 100 µM. For the same compound, the TGI [37] was > 100 µM and the TGI [38] was > 100 µM.
`Cc1cc(C)nc(NS(=O)(=O)c2ccc(Nc3c4ccc(Cl)cc4nc4c(C(=O)Nc5ccc(S(N)(=O)=O)cc5)cccc34)cc2)n1` was tested, and the TGI [39] was 28.7 µM, the TGI [40] was 32.6 µM and the TGI [1] was > 100 µM. For the same compound, the TGI [41] was > 100 µM, the TGI [2] was 32 µM and the TGI [3] was 65 µM. It also gave a TGI [4] of 48.8 µM, a TGI [5] of 30.9 µM and a TGI [6] of 30.2 µM. For the same compound, the TGI [7] was 36.2 µM, the TGI [8] was 37.8 µM and the TGI [9] was 52.4 µM. For the same compound, the TGI [42] was > 100 µM, the TGI [10] was 27.2 µM and the TGI [11] was 33.1 µM. For the same compound, the TGI [12] was 34.8 µM, the TGI [13] was > 100 µM and the TGI [14] was 34.7 µM. The TGI [15] was > 100 µM, the TGI [16] was > 100 µM and the TGI [43] was 39.7 µM. It also gave a TGI [18] of 43 µM, a TGI [19] of 60.8 µM and a TGI [44] of 24.1 µM. It also gave a TGI [20] of 30.2 µM, a TGI [21] of 55.5 µM and a TGI [22] of 28.8 µM. The TGI [45] was 37.7 µM, the TGI [46] was 76.5 µM and the TGI [23] was 26.7 µM. For the same compound, the TGI [47] was 44.2 µM, the TGI [24] was > 100 µM and the TGI [48] was 36.9 µM. The TGI [25] was 37.9 µM, the TGI [27] was > 100 µM and the TGI [28] was 30.5 µM. For the same compound, the TGI [29] was 30.2 µM, the TGI [30] was 93.9 µM and the TGI [31] was > 100 µM. For the same compound, the TGI [32] was > 100 µM, the TGI [49] was 51.5 µM and the TGI [33] was 89.6 µM. For the same compound, the TGI [34] was 28.7 µM, the TGI [35] was 43.9 µM and the TGI [36] was 76.6 µM. The TGI [37] was 39.2 µM and the TGI [38] was 45.6 µM.
For `O=[N+]([O-])c1cccc(-c2oc(C=Nc3ccccc3)c([N+](=O)[O-])c2-c2cccc([N+](=O)[O-])c2)c1`, the TGI [39] was > 100 µM, the TGI [40] was > 100 µM and the TGI [50] was > 100 µM. For the same compound, the TGI [1] was > 100 µM, the TGI [41] was > 100 µM and the TGI [51] was > 100 µM. For the same compound, the TGI [2] was > 100 µM, the TGI [3] was > 100 µM and the TGI [52] was > 100 µM. For the same compound, the TGI [4] was > 100 µM, the TGI [5] was > 100 µM and the TGI [6] was > 100 µM. The TGI [53] was > 100 µM, the TGI [8] was > 100 µM and the TGI [54] was > 100 µM. The TGI [9] was > 100 µM, the TGI [55] was > 100 µM and the TGI [42] was > 100 µM. The TGI [10] was > 100 µM, the TGI [11] was > 100 µM and the TGI [12] was > 100 µM. For the same compound, the TGI [13] was > 100 µM, the TGI [14] was > 100 µM and the TGI [15] was > 100 µM. The TGI [16] was > 100 µM, the TGI [43] was > 100 µM and the TGI [17] was > 100 µM. The TGI [18] was > 100 µM, the TGI [19] was > 100 µM and the TGI [44] was > 100 µM. The TGI [20] was > 100 µM, the TGI [22] was > 100 µM and the TGI [45] was > 100 µM. The TGI [46] was > 100 µM, the TGI [23] was > 100 µM and the TGI [47] was > 100 µM. For the same compound, the TGI [24] was > 100 µM, the TGI [48] was > 100 µM and the TGI [25] was > 100 µM. The TGI [26] was > 100 µM, the TGI [27] was > 100 µM and the TGI [56] was > 100 µM. For the same compound, the TGI [28] was > 100 µM, the TGI [31] was > 100 µM and the TGI [32] was > 100 µM. The TGI [57] was > 100 µM, the TGI [33] was > 100 µM and the TGI [34] was > 100 µM. The TGI [35] was > 100 µM, the TGI [36] was > 100 µM and the TGI [37] was > 100 µM.
For `O=C(O)/C(=C/C=C/c1ccccc1)c1csc(-c2nc(/C(=C\C=C\c3ccccc3)C(=O)O)cs2)n1`, the TGI [39] was 56.1 µM, the TGI [40] was > 100 µM and the TGI [50] was > 100 µM. For the same compound, the TGI [1] was 92.5 µM, the TGI [41] was 45.6 µM and the TGI [51] was 51.3 µM. The TGI [2] was 57.7 µM, the TGI [3] was 72 µM and the TGI [4] was > 100 µM. The TGI [5] was 59.7 µM, the TGI [6] was 40.8 µM and the TGI [7] was > 100 µM. The TGI [53] was 39.3 µM, the TGI [8] was 54.6 µM and the TGI [54] was 59.9 µM. For the same compound, the TGI [9] was > 100 µM, the TGI [55] was > 100 µM and the TGI [42] was 54.6 µM. For the same compound, the TGI [10] was 92.4 µM, the TGI [11] was > 100 µM and the TGI [12] was > 100 µM. For the same compound, the TGI [13] was 64.8 µM, the TGI [14] was 61 µM and the TGI [15] was > 100 µM. For the same compound, the TGI [16] was 60 µM, the TGI [43] was 16.4 µM and the TGI [19] was > 100 µM. The TGI [20] was 57.5 µM, the TGI [22] was > 100 µM and the TGI [45] was > 100 µM. For the same compound, the TGI [46] was 65.3 µM, the TGI [23] was 82.4 µM and the TGI [24] was > 100 µM. The TGI [48] was 87.6 µM, the TGI [25] was 51.2 µM and the TGI [26] was 43.6 µM. The TGI [27] was > 100 µM, the TGI [56] was 86.3 µM and the TGI [28] was > 100 µM. The TGI [29] was > 100 µM, the TGI [30] was 58.1 µM and the TGI [31] was 98.7 µM. The TGI [32] was 79.8 µM, the TGI [57] was > 100 µM and the TGI [33] was > 100 µM. The TGI [34] was > 100 µM, the TGI [35] was > 100 µM and the TGI [36] was 98.1 µM. For the same compound, the TGI [37] was 59.6 µM.

— PubChem BioAssay (NCI)
